Test results from PubChem BioAssay AID686920 (Broad Institute, 2013).

System: A673 NR0B1-luciferase reporter, viability-normalised luminescence
Test: suppressors of NR0B1-promoter luciferase reporter, dose response, EWS/Fli inhibitor project, luciferase luminescence, A673 cells, cherry-pick (AID 686920)

**Q.** With `N#C[C@H]1N[C@H](CO)[C@H]1c1ccc(C#Cc2ccc(F)cc2)cc1` as the compound, how does the AC35 read?
**A.** The AC35 was 0.123 µM.

**Q.** With `Cc1ccc(S(=O)(=O)Nc2ccc3c(c2)C(=O)N([C@@H](C)CO)C[C@@H](C)[C@@H](CN(C)Cc2ccc(C(=O)Nc4ccccc4N)cc2)O3)cc1` as the compound, how does the AC35 read?
**A.** The AC35 was 6.44 µM.

**Q.** Which AC35 does the source give for `COc1ccc(CCCNC(=O)C2Cc3c(-c4ccc5c(c4)OCO5)ccnc3O2)cc1` (configuration not stated) here?
**A.** Its AC35 is 10.5 µM.

**Q.** Which AC35 does the source give for `C/C(=C\c1ccccc1)C(=O)N1CCC=CC1=O` here?
**A.** Its AC35 is 10.3 µM.

**Q.** For `COC(=O)C[C@@H]1CC[C@@H]2[C@@H](COc3ccc(NC(=O)Nc4ccc(C#N)cc4)cc3C(=O)N2C)O1`, which AC35 is on record?
**A.** The AC35 was 56.2 µM.

**Q.** `C[C@H]1CN([C@@H](C)CO)C(=O)Cc2cc(NC(=O)C3CC3)ccc2O[C@H]1CN(C)S(=O)(=O)c1ccc(Cl)cc1` was tested. Which AC35 did it give?
**A.** The AC35 was 16.1 µM.

**Q.** Which AC35 does the source give for `CCc1nc(N)nc(N)c1-c1ccc(Cl)c(N=[N+]=[N-])c1` here?
**A.** The AC35 was 6.23 µM.

**Q.** How did the AC35 turn out when `C[C@@H]1CN([C@@H](C)CO)S(=O)(=O)c2ccc(C#CC(C)(C)O)cc2O[C@H]1CN(C)Cc1ccc(-c2ccccc2)cc1` was run?
**A.** The AC35 was 2.8 µM.

**Q.** For `COc1ccc(/C=C2/SC(=S)N(CCCC(=O)Nc3ccccc3C(=O)O)C2=O)cc1`, which AC35 is on record?
**A.** Its AC35 is 5.83 µM.

**Q.** Which AC35 does the source give for `COc1ccc(CNc2ncc(-c3ccc(F)cc3)n2C)c2ccccc12` here?
**A.** Its AC35 is 6.93 µM.

**Q.** For `C[C@@H]1CN([C@@H](C)CO)C(=O)Cc2cc(N(C)C)ccc2O[C@@H]1CN(C)Cc1ccccc1`, which AC35 is on record?
**A.** The AC35 was 7.99 µM.

**Q.** With `Nc1ccc(-c2cc3ccccc3oc2=O)cc1` as the compound, how does the AC35 read?
**A.** The AC35 was 0.208 µM.

**Q.** For `O=C(CCCN1C(=O)/C(=C/c2ccccc2Cl)SC1=S)NNC(=O)c1ccc(Cl)cc1`, which AC35 is on record?
**A.** The AC35 was 8.68 µM.

**Q.** `Cc1cccc(NC(=O)CN2CCN(C(=O)CNC(=O)c3ccc(-c4ccccc4)cc3)CC2)c1C` was tested. Which AC35 did it give?
**A.** Its AC35 is 8.14 µM.

**Q.** `O=C1c2ccc3c4c(ccc(c24)C(=O)N1c1cccc(O)c1)C(=O)N(c1cccc(O)c1)C3=O` was tested. Which AC35 did it give?
**A.** Its AC35 is 5.35 µM.

**Q.** Which AC35 does the source give for `COC(=O)C[C@@H]1CC[C@@H]2[C@H](COc3ccc(NC(=O)c4cc(C)on4)cc3C(=O)N2C)O1` here?
**A.** Its AC35 is 7 µM.

**Q.** How did the AC35 turn out when `CCOc1cc(N2CCC(O)CC2)ccc1Nc1ncc2c(n1)N(C)c1ccccc1C(=O)N2C` was run?
**A.** Its AC35 is 2.01 µM.

**Q.** How did the AC35 turn out when `N#CC(=C1C=CC(=NO)C(Cl)=C1)c1ccccc1` was run?
**A.** The AC35 was 5.85 µM.

**Q.** For `OCC1OC(n2ccc3c2ncn2ncnc32)C(O)C1O` (configuration not stated), which AC35 is on record?
**A.** Its AC35 is 1.01 µM.

**Q.** How did the AC35 turn out when `CCN(Cc1ccccc1)c1ccc(/C=N/N=C(N)N)cc1` was run?
**A.** The AC35 was 10.6 µM.

**Q.** For `CCOc1ccc(-c2noc(CCC(=O)O)n2)cc1`, which AC35 is on record?
**A.** Its AC35 is 1.17 µM.

**Q.** With `COC(=O)Cc1[nH]n(-c2nc3ccccc3s2)c(=O)c1C(C)=Nc1ccc(OC)cc1` as the compound, how does the AC35 read?
**A.** Its AC35 is 4.31 µM.

**Q.** Which AC35 does the source give for `O=C(O)c1ccc(N/N=C/c2ccc3nccnc3c2)cc1` here?
**A.** The AC35 was 0.993 µM.

**Q.** For `COc1ccc(OC)c(/C=C/c2ccnc3ccccc23)c1`, which AC35 is on record?
**A.** Its AC35 is 2.4 µM.

**Q.** With `O=C(O)c1ccc(N/N=C/c2cc(Br)cs2)cc1` as the compound, how does the AC35 read?
**A.** Its AC35 is 7.22 µM.

**Q.** Which AC35 does the source give for `O=C(O)c1ccc(N/N=C/c2ccc3c(c2)OCO3)cc1` here?
**A.** The AC35 was 0.644 µM.

**Q.** Which AC35 does the source give for `Cc1ccc(S(=O)(=O)Nc2ccc3c(c2)C(=O)N([C@@H](C)CO)C[C@@H](C)[C@H](CN(C)Cc2ccc(C(F)(F)F)cc2)OCCCC[C@H](C)O3)cc1` here?
**A.** The AC35 was 7.44 µM.

**Q.** Which AC35 does the source give for `COc1ccc(C(C)(O)c2nc(-c3cccc(F)c3)cs2)cc1` (configuration not stated) here?
**A.** Its AC35 is 8.04 µM.

**Q.** Which AC35 does the source give for `COc1cc(/C=N/NS(=O)(=O)c2ccc(C)cc2)ccc1OCc1cccc(C(=O)O)c1` here?
**A.** Its AC35 is 4.09 µM.

**Q.** For `O=C(O)c1ccccc1C(=O)Nc1ccc(Oc2ccc3ccccc3c2)cc1`, which AC35 is on record?
**A.** Its AC35 is 5.69 µM.

**Q.** `C=C1C(=O)OC2C1CCC(C)C1(O)C=CC(=O)C21C` (configuration not stated) was tested. Which AC35 did it give?
**A.** Its AC35 is 11.5 µM.

**Q.** `Nc1ccc(-c2cc3ccccc3c(=O)o2)cc1` was tested. Which AC35 did it give?
**A.** Its AC35 is 0.485 µM.

**Q.** Which AC35 does the source give for `CCCN1C(=O)/C(=C/c2nc3ccccc3c(=O)[nH]2)c2ccccc21` here?
**A.** The AC35 was 32.5 µM.

**Q.** How did the AC35 turn out when `COc1ccc(-c2nc3c(s2)CCc2onc(-c4ccc(OC)cc4)c2-3)cc1` was run?
**A.** The AC35 was 7.59 µM.

**Q.** `O=C(O)c1ccc(N/N=C/c2c(F)cccc2Cl)cc1` was tested. Which AC35 did it give?
**A.** The AC35 was 4.61 µM.

**Q.** How did the AC35 turn out when `C[C@@H]1CN([C@H](C)CO)C(=O)c2cc(C#CCc3ccccc3)cnc2O[C@@H]1CN(C)Cc1cccc(F)c1` was run?
**A.** The AC35 was 46.1 µM.

**Q.** `CC(C)(C)[S@](=O)N1Cc2cc(C(=O)NCC(F)(F)F)nc(-c3cccc(-c4cccc(F)c4)c3)c2[C@@H]1CCO` was tested. Which AC35 did it give?
**A.** Its AC35 is 18.9 µM.

**Q.** With `COc1ccc2cc(C(N)=O)/c(=N\NC(=O)c3ccccc3)oc2c1` as the compound, how does the AC35 read?
**A.** The AC35 was 5.91 µM.

**Q.** With `C[C@]12CC[C@H](O)C[C@H]1CC[C@@H]1[C@@H]2C[C@@H](O)[C@]2(C)[C@@H](C3=CC(=O)OC3)CC[C@]12O` as the compound, how does the AC35 read?
**A.** The AC35 was 1 µM.

**Q.** How did the AC35 turn out when `CC[C@@H]1C[C@H]2CC[C@H](O2)[C@H](C)C(=O)O[C@@H](C)C[C@@H]2CC[C@@H](O2)[C@@H](C)C(=O)O[C@H](C)C[C@H]2CC[C@H](O2)[C@H](C)C(=O)O[C@@H](C)C[C@@H]2CC[C@@H](O2)[C@@H](C)C(=O)O1` was run?
**A.** Its AC35 is 0.0992 µM.

**Q.** For `COc1ccc(S(=O)(=O)N2CC[C@@H]3[C@@H](CO)Nc4ccc(-c5ccc(C#N)cc5)cc4[C@@H]32)cc1`, which AC35 is on record?
**A.** The AC35 was 0.625 µM.

**Q.** For `Cc1nn(-c2ccc(F)cc2)c2nc(N)c(C#N)c(-c3ccc(O)c(O)c3)c12`, which AC35 is on record?
**A.** Its AC35 is 22.2 µM.

**Q.** Which AC35 does the source give for `Cc1cccc(N2CCN(C3C(=O)Nc4ccccc4-n4nnnc43)CC2)c1C` (configuration not stated) here?
**A.** Its AC35 is 9.29 µM.

**Q.** With `COC(=O)C[C@@H]1CC[C@@H]2[C@H](COc3ccc(NC(=O)Nc4ccc(C#N)cc4)cc3C(=O)N2C)O1` as the compound, how does the AC35 read?
**A.** The AC35 was 62.4 µM.

**Q.** How did the AC35 turn out when `COC1C(O)C(C)OC(OC2CCC3(C)C(CCC4C3C(O)CC3(C)C(C5=CC(=O)OC5)CCC43O)C2)C1O` (configuration not stated) was run?
**A.** Its AC35 is 0.183 µM.

**Q.** How did the AC35 turn out when `Cc1ccccc1N=CC1=C(O)c2ccccc2C1=O` was run?
**A.** Its AC35 is 2.72 µM.

**Q.** Which AC35 does the source give for `CN(C)c1ccc(/C=N/Nc2nc3ccccc3o2)cc1` here?
**A.** Its AC35 is 5.35 µM.
